{"source": "patent US7741286B2", "about": "“Long lasting anti-angiogenic peptides” (ConjuChem Biotechnologies Inc., priority 1999, dated 2010)", "assay": "Peptide stability assay: stability of K5 in human plasma (HPLC/MS of free intact peptide)", "format": "in vitro ADME", "set-up": "remaining at 4 h / remaining at 24 h: dose or concentration left out as unconfirmed", "settings": "for % K5 peptide in plasma: final concentration 160 mM K5", "experimental": "K5 was prepared as a 1 μM solution and dissolved in 25% human serum albumin. The mixture was then incubated at 37° C. in the presence of human plasma to final concentration of […] K5. Aliquots of 100 μl were withdrawn from the plasma at 0, 4 hours and 24 hours. The 100 μl aliquots were mixed with 100 μl of blocking solution (5 vol. 5% ZnSO4/3 vol. Acetonitrile/2 vol. Methanol) in order to precipitate all proteins. The sample was centrifuged for 5 min at 10,000 g and the supernatant containing the peptide was recovered and filtered through a 0.22 μm filter. The presence of free intact K5 peptide was assayed by the HPLC/MS. The HPLC parameters for detection of K5 peptide in serum were as follows.\nThe HPLC method was as follows: A Vydac C18 250×4.6 mm, 5μ particle size column was utilized. The column temperature was 30° C. with a flow rate of 0.5 ml/min. Mobile Phase A was 0.1% TFA/water. Mobile Phase B was 0.1% TFA/acetonitrite. The injection volume was 10 μl.\nThe gradient was as follows: […]\nThe proteins were detected at 214, 254 and 334 nm. For mass spectral analysis, the ionization mode was API-electrospray (positive mode) at an M/Z range of 300 to 2000. The gain was 3.0, fragmentor 120 v, threshold 20, stepsize 0.1. The gas temp was 350° C. and the dying gas volume was 10.0 l/min. The Neb pressure was 24 psi and the Vcap was 3500V. The HPLC method was as follows: A Vydac C18 250×4.6 mm, 5μ particle size column was utilized. The column temperature was 30° C. with a flow rate of 0.5 ml/min. Mobile Phase A was 0.1% TFA/water. Mobile Phase B was 0.1% TFA/acetonitrite. The injection volume was 10 μl.\nThe proteins were detected at 214, 254 and 334 nm. For mass spectral analysis, the ionization mode was API-electrospray (positive mode) at an M/Z range of 300 to 2000. The gain was 3.0, fragmentor 120 v, threshold 20, stepsize 0.1. The gas temp was 350° C. and the drying gas volume was 10.0 l/min. The Neb pressure was 24 psi and the Vcap was 3500V."}
{"substance": "H-PRKLYDK-NH2 [Example K5, Pro-Arg-Lys-Leu-Tyr-Asp-Lys-NH2]", "values": [{"measurement": "% K5 peptide in plasma", "setting": "0 hrs, 37° C. in human plasma", "result": 100, "unit": "%"}, {"measurement": "remaining at 4 h", "setting": "4 hrs, 37° C. in human plasma", "result": 9, "unit": "%"}, {"measurement": "% K5 peptide in plasma", "setting": "4 hrs, 37° C. in human plasma", "result": 9, "unit": "%"}, {"measurement": "remaining at 24 h", "setting": "24 hrs, 37° C. in human plasma", "result": 0, "unit": "%"}, {"measurement": "stability of unmodified K5 peptide in serum/plasma (in words)", "setting": "human plasma, 37° C.", "result": "quite unstable"}]}
